From patent publication US12410194B2, “Potent and selective azaindole inhibitors of CDK8 and CDK19” (priority 2019, dated 2025)
pIC50: −log10 of the molar value.

Each compound was assayed against CDK8/cyclin C (Homo sapiens (Human), UniProt P49336) (assay: LanthaScreen Eu Kinase Binding Assay for CDK8/cyclin C). Conditions: 10-point curve, 4-fold dilution series, 60 min at room temperature.
Sequence of CDK8/cyclin C (P49336 whole entry, looked up): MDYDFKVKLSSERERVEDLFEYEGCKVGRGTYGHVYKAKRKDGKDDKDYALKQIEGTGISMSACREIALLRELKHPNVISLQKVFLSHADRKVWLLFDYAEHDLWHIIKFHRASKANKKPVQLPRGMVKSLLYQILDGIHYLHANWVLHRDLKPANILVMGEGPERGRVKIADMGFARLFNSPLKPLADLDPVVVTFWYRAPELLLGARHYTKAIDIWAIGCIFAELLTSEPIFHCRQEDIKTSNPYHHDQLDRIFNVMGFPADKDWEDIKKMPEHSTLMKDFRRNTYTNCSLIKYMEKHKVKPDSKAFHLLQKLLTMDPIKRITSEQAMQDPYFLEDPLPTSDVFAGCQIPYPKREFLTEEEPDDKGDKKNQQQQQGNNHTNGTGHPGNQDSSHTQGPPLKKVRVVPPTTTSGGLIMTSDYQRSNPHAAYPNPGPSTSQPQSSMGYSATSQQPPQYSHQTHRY
Sequence of CDK8/cyclin C (P24863 whole entry partner, looked up): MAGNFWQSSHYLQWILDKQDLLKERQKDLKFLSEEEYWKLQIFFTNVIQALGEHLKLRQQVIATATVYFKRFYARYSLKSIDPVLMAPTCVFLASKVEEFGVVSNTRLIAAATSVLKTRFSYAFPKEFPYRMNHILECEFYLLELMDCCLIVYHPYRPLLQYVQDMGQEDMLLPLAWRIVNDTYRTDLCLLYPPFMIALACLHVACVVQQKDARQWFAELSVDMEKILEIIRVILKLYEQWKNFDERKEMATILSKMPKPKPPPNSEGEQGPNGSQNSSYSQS

Row | Compound | pIC50
1 | O=C1NCCC12CCN(c1c(-c3ccc4scnc4c3)cnc3[nH]ccc13)CC2 [Compound 002, 8-(5-(benzo[d]thiazol-5-yl)-1H-pyrrolo[2,3-b]pyridin-4-yl)-2,8-diazaspiro[4.5]decan-1-one] | 8.19
2 | O=C1NCCC12CCN(c1c(-c3ccc4ncsc4c3)cnc3[nH]ccc13)CC2 [Compound 004, 8-(5-(benzo[d]thiazol-6-yl)-1H-pyrrolo[2,3-b]pyridin-4-yl)-2,8-diazaspiro[4.5]decan-1-one] | 7.61
3 | Cn1cnc2cc(-c3cnc4[nH]ccc4c3N3CCC4(CCNC4=O)CC3)ccc21 [Compound 005, 8-(5-(1-methyl-1H-benzo[d]imidazol-5-yl)-1H-pyrrolo[2,3-b]pyridin-4-yl)-2,8-diazaspiro[4.5]decan-1-one] | 7.49
4 | Cn1ncc2cc(-c3cnc4[nH]ccc4c3N3CCC4(CCCNC4=O)CC3)ccc21 [Compound 006, 9-(5-(1-methyl-1H-indazol-5-yl)-1H-pyrrolo[2,3-b]pyridin-4-yl)-2,9-diazaspiro[5.5]undecan-1-one] | 8.52
5 | O=C1NCCC12CCN(c1c(-c3ccc4ncnn4c3)cnc3[nH]ccc13)CC2 [Compound 007, 8-(5-([1,2,4]triazolo[1,5-a]pyridin-6-yl)-1H-pyrrolo[2,3-b]pyridin-4-yl)-2,8-diazaspiro[4.5]decan-1-one] | 6.56
6 | O=C1NCCC12CCN(c1c(-c3ccc4[nH]cnc4c3)cnc3[nH]ccc13)CC2 [Compound 008, 8-(5-(1H-benzo[d]imidazol-5-yl)-1H-pyrrolo[2,3-b]pyridin-4-yl)-2,8-diazaspiro[4.5]decan-1-one] | 8.30
7 | O=C1NCCC12CCN(c1c(-c3ccn4ccnc4c3)cnc3[nH]ccc13)CC2 [Compound 009, 8-(5-(imidazo[1,2-a]pyridin-7-yl)-1H-pyrrolo[2,3-b]pyridin-4-yl)-2,8-diazaspiro[4.5]decan-1-one] | 7.12
8 | Cn1ncc2cc(-c3cnc4[nH]ccc4c3N3CCC4(CC3)CNC4=O)ccc21 [Compound 010, 7-(5-(1-methyl-1H-indazol-5-yl)-1H-pyrrolo[2,3-b]pyridin-4-yl)-2,7-diazaspiro[3.5]nonan-1-one] | 8.20
9 | Cn1ncc2cc(-c3cnc4[nH]ccc4c3N3CCC4(CC3)CNC(=O)O4)ccc21 [Compound 011, 8-(5-(1-methyl-1H-indazol-5-yl)-1H-pyrrolo[2,3-b]pyridin-4-yl)-1-oxa-3,8-diazaspiro[4.5]decan-2-one] | 8.15
10 | Cn1ncc2cc(-c3cnc4[nH]ccc4c3N3CCC4(CC3)NC(=O)NC4=O)ccc21 [Compound 014, 8-(5-(1-methyl-1H-indazol-5-yl)-1H-pyrrolo[2,3-b]pyridin-4-yl)-1,3,8-triazaspiro[4.5]decane-2,4-dione] | 8.52
11 | Cn1ncc2cc(-c3cnc4[nH]cnc4c3N3CCC4(CCNC4=O)CC3)ccc21 [Compound 016, 8-(6-(1-methyl-1H-indazol-5-yl)-3H-imidazo[4,5-b]pyridin-7-yl)-2,8-diazaspiro[4.5]decan-1-one] | 8.00
12 | Cn1ncc2cc(-c3cnc4[nH]ccc4c3N3CCC4(CCNC4=O)C3)ccc21 (stereo not shown) [Compound 017, 7-(5-(1-methyl-1H-indazol-5-yl)-1H-pyrrolo[2,3-b]pyridin-4-yl)-2,7-diazaspiro[4.4]nonan-1-one] | 7.26
13 | Cn1ncc2cc(-c3cnc4[nH]cc(Cl)c4c3N3CCC4(CCNC4=O)CC3)ccc21 [Compound 018, 8-(3-chloro-5-(1-methyl-1H-indazol-5-yl)-1H-pyrrolo[2,3-b]pyridin-4-yl)-2,8-diazaspiro[4.5]decan-1-one] | 8.76
14 | Cn1ncc2cc(-c3cnc4sccc4c3N3CCC4(CCNC4=O)CC3)ccc21 [Compound 019, 8-(5-(1-methyl-1H-indazol-5-yl)thieno[2,3-b]pyridin-4-yl)-2,8-diazaspiro[4.5]decan-1-one] | 6.69
15 | Cn1ncc2cc(-c3cnc4[nH]nc(Cl)c4c3N3CCC4(CCNC4=O)CC3)ccc21 [Compound 020] | 8.86
16 | Cc1n[nH]c2ncc(-c3ccc4c(cnn4C)c3)c(N3CCC4(CCNC4=O)CC3)c12 [Compound 021] | 7.44
